Reference: patent US9006150B2, “Structural nucleic acid guided chemical synthesis” (Vipergen ApS, priority 2004, dated 2015)
Entries after “also recorded” stand apart in the source; their conditions may differ.

Experiments:
[1] = system: 3E7 anti Leu-enkephalin monoclonal antibody; format: binding
[2] = system: W6/32 monoclonal antibody

Row | Substance | binding to 3E7 antibody (gel-shifted band) [1] | gel-shifted band with IgG2A isotype matched negative control antibody [2]
1 | Gly-Leu-Phe-Tyr-Gly-DNA (GLFYG; DNA conjugate; printed: Gly-Leu-Phe-Tyr-Gly-) [R2 product, Structural DNA display product with scrambled Leu-enkephalin, negative control for the partitioning assay] | does not bind to 3E7 | –
2 | Tyr-Gly-Gly-Phe-Leu-DNA [R1 product] | binding to 3E7 antibody; also recorded: specific binding | absent
